Columns and labels:
human mGlu5a receptor [1] = target: T1, human mGlu5a receptor (Homo sapiens (Human), UniProt P41594); test: Intracellular Ca2+ mobilization assay (mGlu5 PAM assay); assay type: cell-based; conditions: for Activity profile: PAM = positive allosteric modulator, NAM = negative allosteric modulator; for Efficacy [%]: maximal response in % of the maximal stimulatory effect of saturating L-glutamate; for mGlu5 PAM EC50 [nM] / EC50 (nM) mGlu5 PAM assay: HEK-293 cells, human mGlu5a, glutamate at EC20
T1 sequence (P41594 other isoform, or with tags, fused parts or gaps): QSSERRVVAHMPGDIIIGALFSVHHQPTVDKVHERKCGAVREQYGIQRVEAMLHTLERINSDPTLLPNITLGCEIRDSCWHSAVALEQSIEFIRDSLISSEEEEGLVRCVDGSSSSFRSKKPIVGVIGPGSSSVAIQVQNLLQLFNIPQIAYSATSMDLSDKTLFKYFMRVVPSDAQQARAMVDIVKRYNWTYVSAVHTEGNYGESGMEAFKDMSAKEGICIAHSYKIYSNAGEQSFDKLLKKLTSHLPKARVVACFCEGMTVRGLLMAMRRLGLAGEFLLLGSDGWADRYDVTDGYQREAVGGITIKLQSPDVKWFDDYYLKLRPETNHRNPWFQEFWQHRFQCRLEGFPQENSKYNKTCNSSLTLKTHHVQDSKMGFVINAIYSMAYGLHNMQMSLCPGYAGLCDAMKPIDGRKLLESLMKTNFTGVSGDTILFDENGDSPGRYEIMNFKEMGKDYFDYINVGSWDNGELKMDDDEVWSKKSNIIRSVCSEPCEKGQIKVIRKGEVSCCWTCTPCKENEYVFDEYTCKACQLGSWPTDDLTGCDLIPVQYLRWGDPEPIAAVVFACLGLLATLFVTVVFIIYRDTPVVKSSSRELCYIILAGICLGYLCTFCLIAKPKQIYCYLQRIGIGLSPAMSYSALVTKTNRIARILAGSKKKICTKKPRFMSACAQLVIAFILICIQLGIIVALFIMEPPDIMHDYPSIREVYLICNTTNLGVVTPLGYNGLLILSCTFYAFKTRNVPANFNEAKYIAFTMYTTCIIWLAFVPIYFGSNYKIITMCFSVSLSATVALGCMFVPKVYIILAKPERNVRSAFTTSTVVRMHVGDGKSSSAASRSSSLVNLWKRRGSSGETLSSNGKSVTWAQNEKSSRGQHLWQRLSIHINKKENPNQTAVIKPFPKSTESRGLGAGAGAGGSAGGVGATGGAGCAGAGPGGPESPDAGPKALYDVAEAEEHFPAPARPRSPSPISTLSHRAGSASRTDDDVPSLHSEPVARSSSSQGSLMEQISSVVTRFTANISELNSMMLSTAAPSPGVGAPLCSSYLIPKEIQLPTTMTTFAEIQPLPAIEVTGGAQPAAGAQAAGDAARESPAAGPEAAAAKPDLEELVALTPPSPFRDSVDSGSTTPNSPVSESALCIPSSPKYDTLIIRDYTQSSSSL
Protocol: A monoclonal HEK-293 cell line stably transfected with a cDNA encoding for the human mGlu5a receptor was generated; for the work with mGlu5 Positive Allosteric Modulators (PAMs), a cell line with low receptor expression levels and low constitutive receptor activity was selected to allow the differentiation of agonistic versus PAM activity. Cells were cultured according to standard protocols (Freshney, 2000) in Dulbecco's Modified Eagle Medium with high glucose supplemented with 1 mM glutamine, 10% (vol/vol) heat-inactivated bovine calf serum, Penicillin/Streptomycin, 50 μg/ml hygromycin and 15 μg/ml blasticidin (all cell culture reagents and antibiotics from Invitrogen, Basel, Switzerland).
About 24 hrs before an experiment, 5×10^4 cells/well were seeded in poly-D-lysine coated, black/clear-bottomed 96-well plates. The cells were loaded with 2.5 μM Fluo-4AM in loading buffer (1×HBSS, 20 mM HEPES) for 1 hr at 37° C. and washed five times with loading buffer. The cells were transferred into a Functional Drug Screening System 7000 (Hamamatsu, Paris, France), and 11 half logarithmic serial dilutions of test compound at 37° C. were added and the cells were incubated for 10-30 min. with on-line recording of fluorescence. Following this pre-incubation step, the agonist L-glutamate was added to the cells at a concentration corresponding to EC20 (typically around 80 μM) with on-line recording of fluorescence; in order to account for day-to-day variations in the responsiveness of cells, the EC20 of glutamate was determined immediately ahead of each experiment by recording of a full dose-response curve of glutamate.
Responses were measured as peak increase in fluorescence minus basal (i.e. fluorescence without addition of L-glutamate), normalized to the maximal stimulatory effect obtained with saturating concentrations of L-glutamate. Graphs were plotted with the % maximal stimulatory using XLfit, a curve fitting program that iteratively plots the data using Levenburg Marquardt algorithm. The single site competition analysis equation used was y=A+((B−A)/(1+((x/C)D))), where y is the % maximal stimulatory effect, A is the minimum y, B is the maximum y, C is the EC50, x is the log 10 of the concentration of the competing compound and D is the slope of the curve (the Hill Coefficient). From these curves the EC50 (concentration at which half maximal stimulation was achieved), the Hill coefficient as well as the maximal response in % of the maximal stimulatory effect obtained with saturating concentrations of L-glutamate were calculated.
A depression of the signal observed after addition of the EC20 concentration of L-glutamate was indicative of an inhibitory activity of the test compound.

human mGlu5a receptor [2] = target: T1, human mGlu5a receptor; test: MPEP binding assay ([3H]MPEP displacement); conditions: [3H]MPEP 2 nM, 1 h at 4° C., EBNA cell membranes
Protocol: For binding experiments, cDNA encoding human mGlu 5a receptor was transiently transfected into EBNA cells using a procedure described by Schlaeger and Christensen [Cytotechnology 15:1-13 (1998)]. Cell membrane homogenates were stored at −80° C. until the day of assay where upon they were thawed and resuspended and polytronised in 15 mM Tris-HCl, 120 mM NaCl, 100 mM KCl, 25 mM CaCl2, 25 mM MgCl2 binding buffer at pH 7.4 to a final assay concentration of 20 μg protein/well.
Saturation isotherms were determined by addition of twelve [^3H]MPEP concentrations (0.04-100 nM) to these membranes (in a total volume of 200 μl) for 1 h at 4° C. Competition experiments were performed with a fixed concentration of [^3H]MPEP (2 nM) and IC50 values of test compounds evaluated using 11 concentrations (0.3-10,000 nM). Incubations were performed for 1 h at 4° C.
At the end of the incubation, membranes were filtered onto unifilter (96-well white microplate with bonded GF/C filter preincubated 1 h in 0.1% PEI in wash buffer, Packard BioScience, Meriden, Conn.) with a Filtermate 96 harvester (Packard BioScience) and washed 3 times with cold 50 mM Tris-HCl, pH 7.4 buffer. Nonspecific binding was measured in the presence of 10 μM MPEP. The radioactivity on the filter was counted (3 min) on a Packard Top-count microplate scintillation counter with quenching correction after addition of 45 μl of microscint 40 (Canberra Packard S.A., Zurich, Switzerland) and shaking for 20 min.

| Activity profile (human mGlu5a receptor [1]) | Ki (human mGlu5a receptor [2]) [nM] | Efficacy [%] (human mGlu5a receptor [1]) | Structure (SMILES) | also measured |
| --- | --- | --- | --- | --- |
| PAM | 58 |  | CC(C)(NC(=O)c1ccc(C#Cc2ccnc(Cl)c2)cn1)C(F)(F)F [Reference compound 3, reference compound] |  |
|  |  | 80 | CC(C)(NC(=O)c1ccc(C#Cc2ccnc(Cl)c2)cn1)C(F)(F)F [drawing 5] |  |
|  |  |  | CN(C(=O)c1ccc(C#Cc2cccc(Cl)c2)cn1)C(C)(C)C [drawing 7] | mGlu5 PAM EC50 [nM] (human mGlu5a receptor [1]): inactive |
| NAM | 15 |  | CN(C(=O)c1ccc(C#Cc2cccc(Cl)c2)cn1)C(C)(C)C [Example 2, 5-(3-Chloro-phenylethynyl)-pyridine-2-carboxylic acid tert-butyl-methyl-amide] | EC50 (nM) mGlu5 PAM assay (human mGlu5a receptor [1]): inactive |
|  |  | 33 | CN(C(=O)c1ccc(C#Cc2cncc(Cl)c2)cn1)C(C)(C)C [drawing 4] |  |
|  |  |  | CN(C(=O)c1ccc(C#Cc2ccnc(Cl)c2)cn1)C(C)(C)C [drawing 6] | mGlu5 PAM EC50 [nM] (human mGlu5a receptor [1]): Inactive |
| NAM | 28 |  | CN(C(=O)c1ccc(C#Cc2ccnc(Cl)c2)cn1)C(C)(C)C [Example 1, 5-(2-Chloro-pyridin-4-ylethynyl)-pyridine-2-carboxylic acid tert-butyl-methyl-amide] | EC50 (nM) mGlu5 PAM assay (human mGlu5a receptor [1]): inactive |
| PAM | 42 |  | CN(C(=O)c1ccc(C#Cc2cncc(Cl)c2)cn1)C(C)(C)C [Reference compound 2, reference compound] |  |

| Structure (SMILES) | Activity profile (human mGlu5a receptor [1]) | Ki (human mGlu5a receptor [2]) [nM] | Efficacy [%] (human mGlu5a receptor [1]) | also measured |
| --- | --- | --- | --- | --- |
| CN(C(=O)c1ccc(C#Cc2cccc(F)c2)cn1)C(C)(C)C [Reference compound 1, reference compound] | PAM | 29 |  |  |
| CN(C(=O)c1ccc(C#Cc2cccc(F)c2)cn1)C(C)(C)C [drawing 3] |  |  | 64 |  |
